Experimental data published in ChEMBL document CHEMBL3991601, “The target landscape of clinical kinase drugs” (Science, 2017).
Active and inactive are the calls of the source. Rule as the data show it, for most assays here: actives have a measured Kd and inactives only a lower limit.

How the values were obtained:
[1] = molecular target: Epidermal growth factor receptor (Homo sapiens, UniProt P00533)
[2] = molecular target: T1, ATP-dependent RNA helicase DDX1 (Homo sapiens, UniProt Q92499)
T1 sequence (Q92499 whole entry): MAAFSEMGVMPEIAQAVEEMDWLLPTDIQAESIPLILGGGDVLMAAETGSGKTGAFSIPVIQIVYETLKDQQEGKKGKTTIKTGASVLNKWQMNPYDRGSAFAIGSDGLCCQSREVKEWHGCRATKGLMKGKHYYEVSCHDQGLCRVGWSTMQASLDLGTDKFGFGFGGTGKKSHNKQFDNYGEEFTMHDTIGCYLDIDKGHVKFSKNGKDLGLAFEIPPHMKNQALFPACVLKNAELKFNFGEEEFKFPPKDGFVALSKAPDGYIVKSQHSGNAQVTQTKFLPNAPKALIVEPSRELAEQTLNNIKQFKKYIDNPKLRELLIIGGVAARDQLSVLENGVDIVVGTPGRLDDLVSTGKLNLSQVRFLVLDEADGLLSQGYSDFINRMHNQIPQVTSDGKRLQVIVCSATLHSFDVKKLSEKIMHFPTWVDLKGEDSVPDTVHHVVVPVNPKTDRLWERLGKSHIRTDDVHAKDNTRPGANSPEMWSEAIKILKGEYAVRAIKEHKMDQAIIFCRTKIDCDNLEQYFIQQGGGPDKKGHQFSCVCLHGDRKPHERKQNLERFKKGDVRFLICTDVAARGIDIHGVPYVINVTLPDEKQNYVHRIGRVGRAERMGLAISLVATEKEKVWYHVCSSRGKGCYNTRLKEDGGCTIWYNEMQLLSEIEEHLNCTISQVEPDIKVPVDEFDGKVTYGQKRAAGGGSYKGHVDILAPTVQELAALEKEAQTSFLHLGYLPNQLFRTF

[3] = molecular target: BMP-2-inducible protein kinase (Homo sapiens, UniProt Q9NSY1)
BMP-2-inducible protein kinase, sequence (Q9NSY1 whole entry): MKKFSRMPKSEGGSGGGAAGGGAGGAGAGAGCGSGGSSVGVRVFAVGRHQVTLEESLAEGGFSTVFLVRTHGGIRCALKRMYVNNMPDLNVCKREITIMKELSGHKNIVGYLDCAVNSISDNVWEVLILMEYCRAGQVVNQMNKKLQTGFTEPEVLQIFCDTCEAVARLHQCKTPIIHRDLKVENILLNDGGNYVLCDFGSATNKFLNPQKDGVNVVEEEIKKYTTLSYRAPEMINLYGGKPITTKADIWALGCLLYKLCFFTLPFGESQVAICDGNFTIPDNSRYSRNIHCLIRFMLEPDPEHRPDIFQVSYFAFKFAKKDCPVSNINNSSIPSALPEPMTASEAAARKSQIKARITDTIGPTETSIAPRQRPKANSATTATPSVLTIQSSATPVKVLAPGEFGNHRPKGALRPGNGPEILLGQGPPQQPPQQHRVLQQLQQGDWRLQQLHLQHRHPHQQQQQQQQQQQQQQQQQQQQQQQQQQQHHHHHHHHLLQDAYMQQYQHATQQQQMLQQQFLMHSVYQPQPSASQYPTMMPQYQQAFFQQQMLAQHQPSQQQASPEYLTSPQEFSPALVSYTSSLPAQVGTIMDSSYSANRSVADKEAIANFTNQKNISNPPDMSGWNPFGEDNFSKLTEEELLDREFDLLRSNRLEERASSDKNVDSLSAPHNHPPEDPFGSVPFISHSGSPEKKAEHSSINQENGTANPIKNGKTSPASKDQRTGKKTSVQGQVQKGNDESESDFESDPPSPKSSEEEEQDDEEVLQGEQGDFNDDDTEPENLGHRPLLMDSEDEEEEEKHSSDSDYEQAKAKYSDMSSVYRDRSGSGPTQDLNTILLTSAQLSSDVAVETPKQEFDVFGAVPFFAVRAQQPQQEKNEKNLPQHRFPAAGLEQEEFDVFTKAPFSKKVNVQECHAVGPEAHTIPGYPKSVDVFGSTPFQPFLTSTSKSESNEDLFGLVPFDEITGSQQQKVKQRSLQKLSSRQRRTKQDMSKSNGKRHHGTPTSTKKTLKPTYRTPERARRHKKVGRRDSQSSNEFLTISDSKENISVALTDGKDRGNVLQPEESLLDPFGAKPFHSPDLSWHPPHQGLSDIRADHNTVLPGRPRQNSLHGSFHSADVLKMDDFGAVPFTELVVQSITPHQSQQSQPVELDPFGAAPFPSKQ

[4] = molecular target: T2, Mitogen-activated protein kinase kinase kinase 3 (Homo sapiens, UniProt Q99759)
T2 sequence (Q99759 whole entry): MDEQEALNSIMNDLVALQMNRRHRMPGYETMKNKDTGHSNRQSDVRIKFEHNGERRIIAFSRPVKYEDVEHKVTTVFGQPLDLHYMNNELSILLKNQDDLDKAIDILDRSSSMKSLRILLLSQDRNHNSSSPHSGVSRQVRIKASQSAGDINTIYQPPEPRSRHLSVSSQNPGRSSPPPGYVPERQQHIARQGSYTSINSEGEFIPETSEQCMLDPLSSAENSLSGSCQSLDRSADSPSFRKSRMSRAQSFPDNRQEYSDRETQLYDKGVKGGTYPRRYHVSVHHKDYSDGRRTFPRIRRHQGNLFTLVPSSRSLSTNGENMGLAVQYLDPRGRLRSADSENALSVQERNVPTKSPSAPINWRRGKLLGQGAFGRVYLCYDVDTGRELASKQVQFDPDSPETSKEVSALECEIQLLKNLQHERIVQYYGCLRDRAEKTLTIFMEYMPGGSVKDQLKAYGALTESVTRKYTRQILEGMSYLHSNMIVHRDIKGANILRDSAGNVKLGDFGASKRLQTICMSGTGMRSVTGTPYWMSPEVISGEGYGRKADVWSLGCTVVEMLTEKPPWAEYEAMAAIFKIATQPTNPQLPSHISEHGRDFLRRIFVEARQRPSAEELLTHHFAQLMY

[5] = molecular target: Interleukin-1 receptor-associated kinase 1 (Homo sapiens, UniProt P51617)
Interleukin-1 receptor-associated kinase 1, sequence (P51617 whole entry): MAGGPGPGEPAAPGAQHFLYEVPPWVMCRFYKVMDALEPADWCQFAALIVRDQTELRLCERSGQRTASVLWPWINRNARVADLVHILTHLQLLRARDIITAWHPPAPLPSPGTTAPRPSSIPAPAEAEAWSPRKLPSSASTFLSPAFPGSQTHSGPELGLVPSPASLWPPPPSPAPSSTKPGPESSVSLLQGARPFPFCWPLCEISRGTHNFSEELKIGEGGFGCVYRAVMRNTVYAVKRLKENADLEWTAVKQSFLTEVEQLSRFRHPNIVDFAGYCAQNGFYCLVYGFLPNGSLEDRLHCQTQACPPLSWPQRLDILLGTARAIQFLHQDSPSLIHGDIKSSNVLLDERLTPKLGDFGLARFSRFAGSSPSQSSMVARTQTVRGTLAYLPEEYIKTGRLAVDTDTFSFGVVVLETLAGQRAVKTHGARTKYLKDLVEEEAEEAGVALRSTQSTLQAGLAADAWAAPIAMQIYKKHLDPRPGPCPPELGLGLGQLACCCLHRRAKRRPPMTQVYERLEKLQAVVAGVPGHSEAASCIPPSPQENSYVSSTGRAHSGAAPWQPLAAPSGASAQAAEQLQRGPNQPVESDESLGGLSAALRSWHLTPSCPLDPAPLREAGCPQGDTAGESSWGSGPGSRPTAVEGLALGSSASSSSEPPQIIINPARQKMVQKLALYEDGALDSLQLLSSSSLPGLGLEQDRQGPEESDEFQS

Ephrin type-A receptor 5 = Ephrin type-A receptor 5 (Homo sapiens, UniProt P54756)
Ephrin type-A receptor 5, sequence (P54756 whole entry): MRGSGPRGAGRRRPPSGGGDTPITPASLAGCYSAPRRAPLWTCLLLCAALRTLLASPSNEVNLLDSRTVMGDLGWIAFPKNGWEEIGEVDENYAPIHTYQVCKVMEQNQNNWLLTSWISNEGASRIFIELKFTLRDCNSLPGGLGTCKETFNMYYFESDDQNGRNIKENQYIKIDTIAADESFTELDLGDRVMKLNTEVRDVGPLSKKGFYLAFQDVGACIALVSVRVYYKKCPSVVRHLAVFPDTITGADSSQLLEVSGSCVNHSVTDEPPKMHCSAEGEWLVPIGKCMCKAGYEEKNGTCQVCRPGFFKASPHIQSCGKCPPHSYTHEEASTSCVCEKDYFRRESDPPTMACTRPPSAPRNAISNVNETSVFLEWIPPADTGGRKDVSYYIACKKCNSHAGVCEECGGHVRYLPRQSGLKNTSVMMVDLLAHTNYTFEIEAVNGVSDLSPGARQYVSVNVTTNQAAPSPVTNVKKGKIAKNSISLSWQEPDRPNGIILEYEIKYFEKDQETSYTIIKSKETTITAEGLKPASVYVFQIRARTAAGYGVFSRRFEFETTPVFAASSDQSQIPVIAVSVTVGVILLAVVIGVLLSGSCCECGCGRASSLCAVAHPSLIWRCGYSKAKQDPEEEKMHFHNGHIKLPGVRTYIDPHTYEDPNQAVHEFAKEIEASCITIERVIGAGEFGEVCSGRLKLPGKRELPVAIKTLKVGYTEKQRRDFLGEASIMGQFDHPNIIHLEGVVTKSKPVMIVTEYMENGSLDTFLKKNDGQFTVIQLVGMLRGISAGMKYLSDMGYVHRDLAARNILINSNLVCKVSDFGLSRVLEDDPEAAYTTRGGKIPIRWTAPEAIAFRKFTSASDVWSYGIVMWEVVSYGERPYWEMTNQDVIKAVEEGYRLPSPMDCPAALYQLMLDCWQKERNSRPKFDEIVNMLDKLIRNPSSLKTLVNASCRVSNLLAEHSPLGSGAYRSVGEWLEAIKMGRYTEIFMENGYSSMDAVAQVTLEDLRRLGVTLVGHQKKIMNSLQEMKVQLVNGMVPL

[6] = molecular target: Dual specificity mitogen-activated protein kinase kinase 2 (Homo sapiens, UniProt P36507)
Dual specificity mitogen-activated protein kinase kinase 2, sequence (P36507 whole entry): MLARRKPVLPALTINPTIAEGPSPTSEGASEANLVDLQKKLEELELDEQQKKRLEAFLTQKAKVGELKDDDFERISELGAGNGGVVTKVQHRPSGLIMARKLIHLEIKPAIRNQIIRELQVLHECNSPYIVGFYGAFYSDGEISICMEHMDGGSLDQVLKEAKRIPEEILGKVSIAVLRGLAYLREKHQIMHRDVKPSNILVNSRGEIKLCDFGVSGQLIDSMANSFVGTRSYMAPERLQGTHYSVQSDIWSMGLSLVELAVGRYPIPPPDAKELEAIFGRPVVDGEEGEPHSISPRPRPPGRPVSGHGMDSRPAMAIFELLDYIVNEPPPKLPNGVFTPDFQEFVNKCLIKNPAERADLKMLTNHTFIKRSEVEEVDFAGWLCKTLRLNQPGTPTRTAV

[7] = molecular target: Serine/threonine-protein kinase PAK 2 (Homo sapiens, UniProt Q13177)
Serine/threonine-protein kinase PAK 2, sequence (Q13177 whole entry): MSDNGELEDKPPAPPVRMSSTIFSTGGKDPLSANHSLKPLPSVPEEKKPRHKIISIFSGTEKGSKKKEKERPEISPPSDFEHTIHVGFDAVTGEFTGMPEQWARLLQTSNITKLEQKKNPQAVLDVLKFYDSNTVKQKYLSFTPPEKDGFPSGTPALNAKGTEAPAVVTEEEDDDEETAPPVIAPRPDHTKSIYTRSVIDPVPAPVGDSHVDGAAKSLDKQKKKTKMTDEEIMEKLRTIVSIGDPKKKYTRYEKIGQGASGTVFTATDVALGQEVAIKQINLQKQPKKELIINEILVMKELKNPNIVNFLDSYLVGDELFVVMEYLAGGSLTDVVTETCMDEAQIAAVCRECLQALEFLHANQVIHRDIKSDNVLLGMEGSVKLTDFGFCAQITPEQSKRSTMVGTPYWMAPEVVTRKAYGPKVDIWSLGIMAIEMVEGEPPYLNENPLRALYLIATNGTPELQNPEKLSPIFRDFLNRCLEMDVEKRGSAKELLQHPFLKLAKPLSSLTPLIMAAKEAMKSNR

[8] = molecular target: Dual specificity testis-specific protein kinase 1 (Homo sapiens, UniProt Q15569)
[9] = molecular target: Tyrosine-protein kinase JAK1 (Homo sapiens, UniProt P23458)
[10] = molecular target: T3, Receptor-type tyrosine-protein kinase FLT3 (Homo sapiens, UniProt P36888)
T3 sequence (P36888 whole entry): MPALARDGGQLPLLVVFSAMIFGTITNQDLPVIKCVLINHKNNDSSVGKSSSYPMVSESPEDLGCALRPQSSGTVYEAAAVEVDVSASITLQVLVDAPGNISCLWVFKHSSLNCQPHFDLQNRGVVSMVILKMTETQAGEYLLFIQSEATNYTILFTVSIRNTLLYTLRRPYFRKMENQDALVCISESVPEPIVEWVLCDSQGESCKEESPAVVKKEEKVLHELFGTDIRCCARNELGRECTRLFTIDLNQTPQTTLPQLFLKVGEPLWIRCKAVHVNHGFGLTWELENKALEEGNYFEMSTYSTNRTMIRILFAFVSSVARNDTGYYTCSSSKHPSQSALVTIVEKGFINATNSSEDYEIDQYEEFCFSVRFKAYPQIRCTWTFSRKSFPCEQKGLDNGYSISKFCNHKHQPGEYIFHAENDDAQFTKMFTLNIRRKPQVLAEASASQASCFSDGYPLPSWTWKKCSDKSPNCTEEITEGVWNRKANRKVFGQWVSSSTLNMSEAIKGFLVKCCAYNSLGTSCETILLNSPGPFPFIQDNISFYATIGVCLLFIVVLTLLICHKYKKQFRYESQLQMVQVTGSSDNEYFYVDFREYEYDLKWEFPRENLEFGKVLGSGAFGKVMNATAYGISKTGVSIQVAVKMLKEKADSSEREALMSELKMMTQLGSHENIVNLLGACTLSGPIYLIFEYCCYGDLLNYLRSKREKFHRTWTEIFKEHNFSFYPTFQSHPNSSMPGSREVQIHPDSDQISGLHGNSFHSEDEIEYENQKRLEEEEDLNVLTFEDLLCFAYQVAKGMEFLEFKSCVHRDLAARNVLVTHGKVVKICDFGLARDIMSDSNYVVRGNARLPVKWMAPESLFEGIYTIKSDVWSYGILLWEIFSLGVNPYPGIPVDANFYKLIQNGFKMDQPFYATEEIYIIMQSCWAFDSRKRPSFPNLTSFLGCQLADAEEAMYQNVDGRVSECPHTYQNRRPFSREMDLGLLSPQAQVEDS
Also: in the data inactive means no Kd found up to 30 µM.

Epidermal growth factor receptor, sequence (P00533 whole entry): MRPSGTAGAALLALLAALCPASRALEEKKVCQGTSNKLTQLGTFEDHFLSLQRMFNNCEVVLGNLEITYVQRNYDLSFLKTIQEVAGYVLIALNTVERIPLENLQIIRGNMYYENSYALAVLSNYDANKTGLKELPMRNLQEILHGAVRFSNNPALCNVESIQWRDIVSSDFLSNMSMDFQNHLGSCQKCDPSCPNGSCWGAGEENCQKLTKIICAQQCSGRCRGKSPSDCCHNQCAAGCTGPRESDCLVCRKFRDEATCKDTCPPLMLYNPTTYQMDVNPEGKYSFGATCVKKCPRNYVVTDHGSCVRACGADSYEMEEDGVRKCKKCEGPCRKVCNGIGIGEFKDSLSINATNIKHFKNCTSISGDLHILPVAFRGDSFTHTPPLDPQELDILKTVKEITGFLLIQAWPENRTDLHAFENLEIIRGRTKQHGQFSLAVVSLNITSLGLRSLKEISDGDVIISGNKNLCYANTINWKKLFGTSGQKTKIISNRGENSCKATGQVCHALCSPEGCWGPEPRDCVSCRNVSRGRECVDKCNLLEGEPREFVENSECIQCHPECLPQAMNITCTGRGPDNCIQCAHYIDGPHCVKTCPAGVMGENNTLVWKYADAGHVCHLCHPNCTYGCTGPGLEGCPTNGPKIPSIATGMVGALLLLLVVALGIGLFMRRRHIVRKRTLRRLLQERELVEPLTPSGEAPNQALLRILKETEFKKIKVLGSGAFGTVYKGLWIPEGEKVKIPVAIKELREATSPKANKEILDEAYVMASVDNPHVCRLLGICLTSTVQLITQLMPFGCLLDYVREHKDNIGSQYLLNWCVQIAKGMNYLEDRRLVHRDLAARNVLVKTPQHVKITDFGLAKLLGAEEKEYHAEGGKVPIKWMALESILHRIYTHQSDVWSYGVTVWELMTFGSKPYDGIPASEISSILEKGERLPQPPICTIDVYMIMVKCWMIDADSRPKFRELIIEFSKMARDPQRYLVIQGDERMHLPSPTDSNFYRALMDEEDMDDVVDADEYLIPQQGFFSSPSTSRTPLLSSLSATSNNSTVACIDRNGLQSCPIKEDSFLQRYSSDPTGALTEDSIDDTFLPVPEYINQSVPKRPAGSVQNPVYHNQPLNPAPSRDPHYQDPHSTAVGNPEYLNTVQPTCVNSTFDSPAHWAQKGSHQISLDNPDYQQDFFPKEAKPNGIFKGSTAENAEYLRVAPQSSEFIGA

| SMILES | Kd [1] | Kd [2] | Kd [3] | Kd [4] | Kd [5] | Kd (Ephrin type-A receptor 5) | Kd [6] | Kd [7] | Kd [8] | Kd [9] | Kd [10] |
| --- | --- | --- | --- | --- | --- | --- | --- | --- | --- | --- | --- |
| Cc1csc(-c2nnc(Nc3ccc(Oc4ncccc4-c4ccnc(N)n4)cc3)c3ccccc23)c1 [AMG-900] | > 30 µM (inactive) | > 30 µM (inactive) | > 30 µM (inactive) | 2.75 µM (active) | > 30 µM (inactive) | > 30 µM (inactive) | 3.49 µM (active) | > 30 µM (inactive) | > 30 µM (inactive) | > 30 µM (inactive) | > 30 µM (inactive) |
| COCc1c(-c2ccc(NC(=O)Nc3cc(C(F)(F)F)ccc3F)c(F)c2)c2c(N)ncnn2c1CN1CCOCC1 | > 30 µM (inactive) | > 30 µM (inactive) | > 30 µM (inactive) | > 30 µM (inactive) | > 30 µM (inactive) | > 30 µM (inactive) | > 30 µM (inactive) | > 30 µM (inactive) | > 30 µM (inactive) | > 30 µM (inactive) | 0.465 µM (active) |
| COc1ccc(S(=O)(=O)N(C(C)=O)c2ccccc2/C=C/c2cc[n+]([O-])cc2)cc1 [HMN-214] | > 30 µM (inactive) | > 30 µM (inactive) | > 30 µM (inactive) | > 30 µM (inactive) | > 30 µM (inactive) | > 30 µM (inactive) | > 30 µM (inactive) | > 30 µM (inactive) | > 30 µM (inactive) | > 30 µM (inactive) | > 30 µM (inactive) |
| COc1cc2c(Nc3ccc(Cl)c(Cl)c3F)ncnc2cc1OC[C@@H]1C[C@@H]2CN(C)C[C@@H]2C1 [TESEVATINIB] | 0.038 µM (active) | > 30 µM (inactive) | > 30 µM (inactive) | > 30 µM (inactive) | > 30 µM (inactive) | > 30 µM (inactive) | > 30 µM (inactive) | > 30 µM (inactive) | > 30 µM (inactive) | > 30 µM (inactive) | > 30 µM (inactive) |
| CO[C@H]1C[C@@H]2CC[C@@H](C)[C@@](O)(O2)C(=O)C(=O)N2CCCC[C@H]2C(=O)O[C@H]([C@H](C)C[C@@H]2CC[C@@H](OC(=O)C(C)(CO)CO)[C@H](OC)C2)CC(=O)[C@H](C)/C=C(\C)[C@@H](O)[C@@H](OC)C(=O)[C@H](C)C[C@H](C)/C=C/C=C/C=C/1C [TEMSIROLIMUS] | > 30 µM (inactive) | > 30 µM (inactive) | > 30 µM (inactive) | > 30 µM (inactive) | > 30 µM (inactive) | > 30 µM (inactive) | > 30 µM (inactive) | > 30 µM (inactive) | > 30 µM (inactive) | > 30 µM (inactive) | > 30 µM (inactive) |
| Cn1cnc2c(F)c(Nc3ccc(Br)cc3F)c(C(=O)NOCCO)cc21 [BINIMETINIB] | > 30 µM (inactive) | > 30 µM (inactive) | > 30 µM (inactive) | > 30 µM (inactive) | > 30 µM (inactive) | > 30 µM (inactive) | 0.036 µM (active) | > 30 µM (inactive) | > 30 µM (inactive) | > 30 µM (inactive) | > 30 µM (inactive) |
| COc1c(OCCCN2CCOCC2)ccc2c1N=C(NC(=O)c1cnc(N)nc1)N1CCN=C21 [COPANLISIB] | > 30 µM (inactive) | > 30 µM (inactive) | > 30 µM (inactive) | > 30 µM (inactive) | > 30 µM (inactive) | > 30 µM (inactive) | > 30 µM (inactive) | > 30 µM (inactive) | > 30 µM (inactive) | > 30 µM (inactive) | > 30 µM (inactive) |
| O=c1[nH]ccc2cc(OC3CCNCC3)ccc12 [SAR-407899 FREE BASE] | > 30 µM (inactive) | > 30 µM (inactive) | 0.013 µM | > 30 µM (inactive) | > 30 µM (inactive) | > 30 µM (inactive) | > 30 µM (inactive) | > 30 µM (inactive) | > 30 µM (inactive) | > 30 µM (inactive) | > 30 µM (inactive) |
| CNC(=O)c1cccc2cc(Oc3ccnc4cc(OCC5(N)CC5)c(OC)cc34)ccc12 [LUCITANIB] | > 30 µM (inactive) | > 30 µM (inactive) | > 30 µM (inactive) | > 30 µM (inactive) | > 30 µM (inactive) | > 30 µM (inactive) | > 30 µM (inactive) | > 30 µM (inactive) | > 30 µM (inactive) | > 30 µM (inactive) | > 30 µM (inactive) |
| C=CC(=O)Nc1cc2c(Nc3ccc(F)c(Cl)c3)ncnc2cc1C#CC(C)(C)N1CCN(C)CC1 [AV-412 FREE BASE] | 0.01 µM (active) | > 30 µM (inactive) | > 30 µM (inactive) | > 30 µM (inactive) | > 30 µM (inactive) | > 30 µM (inactive) | > 30 µM (inactive) | > 30 µM (inactive) | > 30 µM (inactive) | > 30 µM (inactive) | > 30 µM (inactive) |
| C[C@@H](NC(=O)c1ncnc(N)c1Cl)c1ncc(C(=O)Nc2cc(C(F)(F)F)c(Cl)cn2)s1 [TOVORAFENIB] | > 30 µM (inactive) | > 30 µM (inactive) | > 30 µM (inactive) | > 30 µM (inactive) | > 30 µM (inactive) | > 30 µM (inactive) | > 30 µM (inactive) | > 30 µM (inactive) | > 30 µM (inactive) | > 30 µM (inactive) | > 30 µM (inactive) |
| Cn1cc(-c2cnn3c(N)c(Br)c([C@@H]4CCCNC4)nc23)cn1 [SCH-900776] | > 30 µM (inactive) | > 30 µM (inactive) | 2.68 µM | > 30 µM (inactive) | > 30 µM (inactive) | > 30 µM (inactive) | 2.36 µM (active) | > 30 µM (inactive) | > 30 µM (inactive) | > 30 µM (inactive) | > 30 µM (inactive) |
| CCn1c(C(=O)N(C2CC2)C2CC2)cc2c3c(ncn3C)c(Nc3cc(C)n(C)n3)nc21 [BMS-911543] | > 30 µM (inactive) | > 30 µM (inactive) | > 30 µM (inactive) | > 30 µM (inactive) | > 30 µM (inactive) | > 30 µM (inactive) | > 30 µM (inactive) | > 30 µM (inactive) | > 30 µM (inactive) | > 30 µM (inactive) | > 30 µM (inactive) |
